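Method: 48-hour compound exposure of cells in 96-well plates, five concentrations, linear interpolation of endpoints. Abbreviation: GI50, concentration required for 50% inhibition of growth.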 The source made the active and inactive calls. No stated cut-off is given here; in the data, active = GI50 up to about 1.1 µM and inactive = higher.
Experiments:
Assay in all cases: growth of human tumour cells (NCI), 48 h
[1] = tested on: PC-3
[2] = tested on: OVCAR-5
[3] = tested on: UO-31
[4] = tested on: HOP-62
[5] = tested on: ACHN
[6] = tested on: HCT-15
[7] = tested on: KM12
[8] = tested on: T47D
[9] = tested on: SNB-19
[10] = tested on: CCRF-CEM
[11] = tested on: A498
[12] = tested on: MDA-MB-231
[13] = tested on: NCI-H460
[14] = tested on: OVCAR-3
[15] = tested on: MCF7
[16] = tested on: MDA-MB-435
[17] = tested on: M14
[18] = tested on: HCC 2998
[19] = tested on: COLO 205
[20] = tested on: HL-60

Compound | GI50 [1] | GI50 [2] | GI50 [3] | GI50 [4] | GI50 [5] | GI50 [6] | GI50 [7] | GI50 [8] | GI50 [9] | GI50 [10] | GI50 [11] | GI50 [12] | GI50 [13] | GI50 [14] | GI50 [15] | GI50 [16] | GI50 [17] | GI50 [18] | GI50 [19] | GI50 [20]
O=[N+]([O-])C(/C(Cl)=C(/Cl)N1CCCCC1)=C1\NCCO1 | > 100 µM (inactive) | > 100 µM (inactive) | > 100 µM (inactive) | > 100 µM (inactive) | > 100 µM (inactive) | > 100 µM | > 100 µM (inactive) | > 100 µM (inactive) | > 100 µM (inactive) | > 100 µM (inactive) | > 100 µM (inactive) | > 100 µM (inactive) | > 100 µM (inactive) | > 100 µM (inactive) | > 100 µM (inactive) | > 100 µM (inactive) | > 100 µM (inactive) | > 100 µM (inactive) | > 100 µM (inactive) | –
CCCNC(=O)Cn1c(-c2ccccc2)cc2ccccc21 | 41.1 µM (inactive) | > 100 µM (inactive) | > 100 µM (inactive) | 67.3 µM (inactive) | 71.8 µM (inactive) | 75 µM | > 100 µM (inactive) | 24.2 µM (inactive) | > 100 µM (inactive) | > 100 µM (inactive) | – | 32.7 µM (inactive) | 92.3 µM (inactive) | 91.8 µM (inactive) | 37.5 µM (inactive) | 77.3 µM (inactive) | > 100 µM (inactive) | > 100 µM (inactive) | > 100 µM (inactive) | > 100 µM (inactive)
O=C1CC(c2ccc(Cl)cc2)C2(C(=O)NC(=O)NC2=O)C(c2ccc(Cl)cc2)C1 (configuration not stated) | 30.5 µM (inactive) | 31.3 µM (inactive) | 25.6 µM (inactive) | 22.9 µM (inactive) | 49 µM (inactive) | 22.9 µM | 36.4 µM (inactive) | 17.9 µM (inactive) | 32.3 µM (inactive) | 30.3 µM (inactive) | – | 13.4 µM (inactive) | 28.6 µM (inactive) | 24.9 µM (inactive) | 22.3 µM (inactive) | 17.3 µM (inactive) | 27.7 µM (inactive) | 27.9 µM (inactive) | 20.2 µM (inactive) | 19.5 µM (inactive)
Cc1cccc(C)c1Nc1nc(C)c(C(=O)CC(=O)C(=O)Nc2c(C(C)C)cccc2C(C)C)s1 | 78.3 µM (inactive) | > 100 µM (inactive) | 39.4 µM (inactive) | > 100 µM (inactive) | > 100 µM (inactive) | > 100 µM | > 100 µM (inactive) | > 100 µM (inactive) | > 100 µM (inactive) | – | – | > 100 µM (inactive) | > 100 µM (inactive) | 72.6 µM (inactive) | > 100 µM (inactive) | > 100 µM (inactive) | > 100 µM (inactive) | > 100 µM (inactive) | > 100 µM (inactive) | 24.7 µM (inactive)
COc1ccc(OC)c(-c2cc(C(=O)O)c3cc4ccccc4cc3n2)c1 | > 100 µM (inactive) | > 100 µM (inactive) | – | > 100 µM (inactive) | > 100 µM (inactive) | > 100 µM | > 100 µM (inactive) | > 100 µM (inactive) | > 100 µM (inactive) | – | > 100 µM (inactive) | > 100 µM (inactive) | > 100 µM (inactive) | > 100 µM (inactive) | > 100 µM (inactive) | > 100 µM (inactive) | > 100 µM (inactive) | – | > 100 µM (inactive) | > 100 µM (inactive)
CC1C(c2ccccc2)NC(c2ccccc2)CC1(N)C#N (configuration not stated) | > 100 µM (inactive) | > 100 µM (inactive) | > 100 µM (inactive) | > 100 µM (inactive) | > 100 µM (inactive) | > 100 µM | > 100 µM (inactive) | > 100 µM (inactive) | > 100 µM (inactive) | > 100 µM (inactive) | – | > 100 µM (inactive) | > 100 µM (inactive) | > 100 µM (inactive) | > 100 µM (inactive) | > 100 µM (inactive) | 38.8 µM (inactive) | > 100 µM (inactive) | 43.4 µM (inactive) | > 100 µM (inactive)
O=c1oc2c/c(=C\c3ccccn3)c(=O)c3cccc1c3-2 | 72.6 µM (inactive) | > 100 µM (inactive) | – | 15.4 µM (inactive) | 44.7 µM (inactive) | > 100 µM | 50.4 µM (inactive) | 38.1 µM (inactive) | 68.2 µM (inactive) | 33.8 µM (inactive) | – | 31.8 µM (inactive) | > 100 µM (inactive) | 7.59 µM (inactive) | > 100 µM (inactive) | > 100 µM (inactive) | > 100 µM (inactive) | > 100 µM (inactive) | > 100 µM (inactive) | > 100 µM (inactive)
COc1cc(OC)c(OC)cc1/C=C/c1ccc2ccccc2n1 | 6.08 µM (inactive) | > 10 µM (inactive) | – | > 10 µM (inactive) | > 10 µM (inactive) | 7.62 µM | 7.85 µM (inactive) | 6.97 µM (inactive) | – | 6.17 µM (inactive) | – | > 10 µM (inactive) | – | > 10 µM (inactive) | 9.57 µM (inactive) | 7.23 µM (inactive) | > 10 µM (inactive) | > 10 µM (inactive) | > 10 µM (inactive) | 3.27 µM (inactive)
C/C=C1\CC(C(=O)OCC)CCCCCCCCCCC1=O (configuration not stated) | 47.9 µM (inactive) | > 100 µM (inactive) | 37.3 µM (inactive) | > 100 µM (inactive) | 75 µM (inactive) | 34.6 µM | 41.3 µM (inactive) | 26.7 µM (inactive) | 69.2 µM (inactive) | 37 µM (inactive) | > 100 µM (inactive) | 58.6 µM (inactive) | 54.1 µM (inactive) | – | 32.8 µM (inactive) | 17.5 µM (inactive) | > 100 µM (inactive) | – | > 100 µM (inactive) | 36.6 µM (inactive)
CC(C)=CCN=C(N)N | > 100 µM (inactive) | – | > 100 µM (inactive) | – | > 100 µM (inactive) | > 100 µM | > 100 µM (inactive) | > 100 µM (inactive) | > 100 µM (inactive) | > 100 µM (inactive) | – | > 100 µM (inactive) | > 100 µM (inactive) | – | > 100 µM (inactive) | > 100 µM (inactive) | – | > 100 µM (inactive) | > 100 µM (inactive) | 45.8 µM (inactive)
O=C1CN(c2ccccc2)Cc2nc(Cl)ccc2N1 | 79.4 µM (inactive) | > 100 µM (inactive) | > 100 µM (inactive) | > 100 µM (inactive) | > 100 µM (inactive) | > 100 µM | > 100 µM (inactive) | > 100 µM (inactive) | > 100 µM (inactive) | > 100 µM (inactive) | – | > 100 µM (inactive) | > 100 µM (inactive) | – | > 100 µM (inactive) | > 100 µM (inactive) | > 100 µM (inactive) | > 100 µM (inactive) | > 100 µM (inactive) | > 100 µM (inactive)
O=C(O)C1Cc2c([nH]c3ccccc23)C(CCCCO)N1 (configuration not stated) | > 100 µM (inactive) | > 100 µM (inactive) | > 100 µM (inactive) | > 100 µM (inactive) | > 100 µM (inactive) | > 100 µM | > 100 µM (inactive) | > 100 µM (inactive) | > 100 µM (inactive) | > 100 µM (inactive) | > 100 µM (inactive) | > 100 µM (inactive) | > 100 µM (inactive) | > 100 µM (inactive) | > 100 µM (inactive) | > 100 µM (inactive) | > 100 µM (inactive) | – | > 100 µM (inactive) | > 100 µM (inactive)
COC(=O)Cc1cc(O)c2c(c1O)C(=O)c1ccccc1C2=O | > 100 µM (inactive) | > 100 µM (inactive) | > 100 µM (inactive) | 24.3 µM (inactive) | > 57.1 µM (inactive) | > 100 µM | > 100 µM (inactive) | > 100 µM (inactive) | 38.5 µM (inactive) | > 52.6 µM (inactive) | 48.1 µM (inactive) | 26.5 µM (inactive) | > 100 µM (inactive) | > 71.9 µM (inactive) | – | > 100 µM (inactive) | > 100 µM (inactive) | > 100 µM (inactive) | > 100 µM (inactive) | > 94.6 µM (inactive)
CCOC(=O)c1cn2c(n1)sc1cc(C)c(C)cc12 | 21.2 µM (inactive) | 16.8 µM (inactive) | 18.8 µM (inactive) | 17.1 µM (inactive) | 19.1 µM (inactive) | 27.9 µM | 15 µM (inactive) | 25.5 µM (inactive) | 20 µM (inactive) | 24.1 µM (inactive) | 17.1 µM (inactive) | 24.3 µM (inactive) | 42.8 µM (inactive) | 17.5 µM (inactive) | 23.6 µM (inactive) | 20.3 µM (inactive) | 26.5 µM (inactive) | 66.1 µM (inactive) | 26.5 µM (inactive) | –
O=C(NCP(=O)(O)O)c1cccnc1 [(NICOTINAMIDOMETHYL)PHOSPHONIC ACID] | > 100 µM (inactive) | > 100 µM (inactive) | > 100 µM (inactive) | > 100 µM (inactive) | > 100 µM (inactive) | > 100 µM | > 100 µM (inactive) | > 100 µM (inactive) | > 100 µM (inactive) | > 100 µM (inactive) | > 100 µM (inactive) | > 100 µM (inactive) | > 100 µM (inactive) | > 100 µM (inactive) | > 100 µM (inactive) | > 100 µM (inactive) | > 100 µM (inactive) | – | > 100 µM (inactive) | > 100 µM (inactive)
C[C@]12O[C@@]3(C)O[C@@]3(C)[C@]3(C)O[C@]3(C)[C@@]1(C)O2 | > 100 µM (inactive) | > 100 µM (inactive) | > 100 µM (inactive) | > 100 µM (inactive) | > 100 µM (inactive) | > 100 µM | > 100 µM (inactive) | 1.22 µM (inactive) | > 100 µM (inactive) | – | > 100 µM (inactive) | > 100 µM (inactive) | – | – | > 100 µM (inactive) | > 100 µM (inactive) | > 100 µM (inactive) | – | > 100 µM (inactive) | –
